Here are results for seven compounds from patent US12281119B2, “Imidazo[2,1-f][1,2,4]triazin-4-amine derivatives as TLR7 agonist” (BEIGENE, LTD., priority 2019, dated 2025).

For the first assay, the target named is T1, human TLR7 (Homo sapiens, UniProt Q9NYK1).
T1 sequence (Q9NYK1 27-1049): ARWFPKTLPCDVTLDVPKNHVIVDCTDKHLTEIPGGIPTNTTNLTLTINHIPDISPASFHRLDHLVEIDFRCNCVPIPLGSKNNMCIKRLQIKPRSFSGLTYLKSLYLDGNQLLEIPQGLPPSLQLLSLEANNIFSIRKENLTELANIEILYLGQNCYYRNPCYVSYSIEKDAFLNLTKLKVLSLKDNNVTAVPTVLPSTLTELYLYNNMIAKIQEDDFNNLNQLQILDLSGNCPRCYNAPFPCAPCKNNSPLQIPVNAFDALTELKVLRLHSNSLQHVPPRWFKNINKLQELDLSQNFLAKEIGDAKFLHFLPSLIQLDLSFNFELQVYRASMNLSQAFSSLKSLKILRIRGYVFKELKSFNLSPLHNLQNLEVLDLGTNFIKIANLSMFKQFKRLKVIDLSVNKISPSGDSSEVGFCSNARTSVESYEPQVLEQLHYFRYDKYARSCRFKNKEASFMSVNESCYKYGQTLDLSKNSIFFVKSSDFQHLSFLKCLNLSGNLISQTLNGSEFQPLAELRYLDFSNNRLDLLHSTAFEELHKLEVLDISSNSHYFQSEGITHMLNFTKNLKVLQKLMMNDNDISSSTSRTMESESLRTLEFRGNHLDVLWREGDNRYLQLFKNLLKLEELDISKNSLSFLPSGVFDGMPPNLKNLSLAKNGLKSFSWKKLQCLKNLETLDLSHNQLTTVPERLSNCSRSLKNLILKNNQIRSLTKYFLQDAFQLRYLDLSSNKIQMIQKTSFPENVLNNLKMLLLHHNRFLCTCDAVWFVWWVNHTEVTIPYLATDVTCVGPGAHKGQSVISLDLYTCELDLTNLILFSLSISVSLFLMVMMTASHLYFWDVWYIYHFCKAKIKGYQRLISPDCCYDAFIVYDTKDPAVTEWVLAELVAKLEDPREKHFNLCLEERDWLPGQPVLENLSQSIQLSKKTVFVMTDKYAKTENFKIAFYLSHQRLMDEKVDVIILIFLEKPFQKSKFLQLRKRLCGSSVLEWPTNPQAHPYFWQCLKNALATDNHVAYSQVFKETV
Kind of assay: HEK293-Blue hTLR7 reporter assay (QUANTI-BLUE, SEAP readout). Type of assay: cell-based. Details: host or cells: HEK293 (HEK-Blue-hTLR7). To be noted: HEK-Blue-hTLR7 cells, QUANTI-BLUE assay (A1-A76), 24 hrs. Summed up:
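Cells seeded at 4×10^4 per well in DMEM/10% heat-inactivated FBS, settled 5 h, then exposed to increasing compound amounts for 24 h at 37° C. Secreted SEAP in supernatant read with Quanti-blue at 620-655 nm after 10-30 min at 37° C.; EC50 from sigmoidal dose-response fit.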
(In general: Reporter assays use an easily measured gene product as a stand-in for the process of interest.)
In the case of `CCCCOc1nc(N)c2ncc(C(C)c3ccc(CN4CCCC4)cc3)n2n1` (stereo not shown) [Compound A75, 2-butoxy-7-(1-(4-(pyrrolidin-1-ylmethyl)phenyl)ethyl)imidazo[2,1-f][1,2,4]triazin-4-amine], the EC50 (as a rule, the concentration at which the effect is half-maximal) is > 10 µM.
On the same count and under the same terms, for `CCCCOc1nc(N)c2ncc(Cc3cnn(CC4CCCNC4)c3)n2n1` (stereo not shown) [Compound A76, 2-butoxy-7-((1-(piperidin-3-ylmethyl)-1H-pyrazol-4-yl)methyl)imidazo[2,1-f][1,2,4]triazin-4-amine] the value was > 10 µM.

The assay is the same for the next values; noted with them: HEK-Blue-hTLR7 cells, QUANTI-BLUE assay (C1-C6), 24 hrs.
As to `CCCCOc1nc(N)n2ncc(Cc3cccc(CN4CCCC4)c3)c2n1` [Compound C1, 2-butoxy-8-(3-(pyrrolidin-1-ylmethyl)benzyl)pyrazolo[1,5-a][1,3,5]triazin-4-amine], the EC50 is > 10 µM.
On the same count and under the same terms, for `CCCCOc1nc(N)n2ncc(Cc3ccc(CN4CCCC4)cc3)c2n1` [Compound C2, 2-butoxy-8-(4-(pyrrolidin-1-ylmethyl)benzyl)pyrazolo[1,5-a][1,3,5]triazin-4-amine] the value was > 10 µM.
Still for that read-out and setting: under `CCCCOc1cc2c(Cc3cnc(N4CCNCC4)c(Cl)c3)cnn2c(N)n1` [Compound C3, 5-butoxy-3-((5-chloro-6-(piperazin-1-yl)pyridin-3-yl)methyl)pyrazolo[1,5-c]pyrimidin-7-amine] stands > 10 µM; under `CCCCOc1cc(N)c2ncc(Cc3cnc(N4CCNCC4)c(C)c3)n2n1` [Compound C5, 6-butoxy-3-((5-methyl-6-(piperazin-1-yl)pyridin-3-yl)methyl)imidazo[1,2-b]pyridazin-8-amine], > 10 µM; under `CCCCOc1nc(N)c2[nH]cc(Cc3cnc(N4CCNCC4)c(C)c3)c2n1` [Compound C6, 2-butoxy-7-((5-methyl-6-(piperazin-1-yl)pyridin-3-yl)methyl)-5H-pyrrolo [3,2-d]pyrimidin-4-amine], 1.07 µM.
